# Patent US4892826A, “Process for the preparation of urokinase derivatives” (Abbott Laboratories, priority 1988, dated 1990)
# Tests used:
# [1] = target: urokinase (Homo sapiens, UniProt P00749); assay: biochemical
# From the text: The optimal concentration of arginine can be approximated by its apparent Ki value for inhibition of urokinase as calculated from a Dixon plot. Dixon, M, Biochem. J., 55, 170-171 (1953). […] It is preferred that the concentration of arginine chosen will maximally saturate the urokinase molecule and confer a protective effect against the previously discussed over reduction of the disulfide bridges.
# [2] = Urokinase amidolytic activity assay with chromogenic substrate S-2444; type: biochemical; conditions: isolated derivative
# Method: The reduction of the three disulfide bridges can be monitored, for example, by assays of the amidolytic activity of the urokinase, by titration of the available SH groups, or by reverse phase chromatography of the reduced urokinase. Preferably, the reduction is monitored by assaying the gain or loss of amidolytic activity of the urokinase.
# Approximately 1 to 2 mg/ml of the UK23 solution, in 0.1M phosphate (pH 7), was diluted with 1 volume of 0.5M arginine in water (pH 7). The reducing agent DTT, from a fresh stock solution of 1M in water, was added to adjust the final DTT concentration to 10 mM. […] The absorbance increase at 406 nm was monitored over a five minute period. One enzyme unit was defined as an increase in absorbance at 406 nm of 1 unit per minute.
molecule,measurement,setting,value
N=C(N)NCCC[C@H](N)C(=O)O [arginine],Ki,[1],70 mM
GPRP-Amino hexanoic acid-LKFQCGQK Urokinase Derivative [Example 1],"amidolytic activity, % of the initial UK23 value",[2]; repeated procedures,80% to 100
Heparin-LKFQCGQK Urokinase Derivative [Example 4],active (amidolytic activity of resulting derivative),[2],100%
